From PubChem BioAssay AID1963865 (Molecular Pharmacology Branch, DTP, NCI, 2024)
Where “and” joins values, the source holds several entries; their conditions need not be identical. Equal values may be shown once.

System: KRAS PDC multicell spheroid viability
Experiment: Anticancer human tumor 825966-067-R-J1-PDC patient-derived colon carcinoma cell line growth inhibition [KRAS2]
Conditions: for viability, T/C: stronger effect = lower value; active = viability on the fitted dose curve at most 10% of control; inactive = the rest
How it was run: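 Combination screen of spheroid viability in tumor-cell co-cultures with endothelial (HUVEC) and mesenchymal stem cell stroma. Each agent was tested in half-log dilutions, topping at clinical Cmax or at 10 microM without a known Cmax.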

[1] = curve of first compound, second compound 0.1 µM
[2] = curve of first compound, second compound 0.316 µM
[3] = curve of first compound, second compound 1 µM
[4] = curve of first compound, second compound 3.16 µM
[5] = curve of first compound, second compound 10 µM
[6] = second compound 0.1 µM, first compound 0.0316 µM
[7] = second compound 0.1 µM, first compound 0.1 µM
[8] = second compound 0.1 µM, first compound 0.316 µM
[9] = second compound 0.1 µM, first compound 1 µM
[10] = second compound 0.1 µM, first compound 3.16 µM
[11] = second compound 0.1 µM, first compound 10 µM
[12] = second compound 0.316 µM, first compound 0.0316 µM
[13] = second compound 0.316 µM, first compound 0.1 µM
[14] = second compound 0.316 µM, first compound 0.316 µM
[15] = second compound 0.316 µM, first compound 1 µM
[16] = second compound 0.316 µM, first compound 3.16 µM
[17] = second compound 0.316 µM, first compound 10 µM
[18] = second compound 1 µM, first compound 0.0316 µM
[19] = second compound 1 µM, first compound 0.1 µM
[20] = second compound 1 µM, first compound 0.316 µM
[21] = second compound 1 µM, first compound 1 µM
[22] = second compound 1 µM, first compound 3.16 µM
[23] = second compound 1 µM, first compound 10 µM
[24] = second compound 3.16 µM, first compound 0.0316 µM
[25] = second compound 3.16 µM, first compound 0.1 µM
[26] = second compound 3.16 µM, first compound 0.316 µM
[27] = second compound 3.16 µM, first compound 1 µM
[28] = second compound 3.16 µM, first compound 3.16 µM
[29] = second compound 3.16 µM, first compound 10 µM
[30] = second compound 10 µM, first compound 0.0316 µM
[31] = second compound 10 µM, first compound 0.1 µM
[32] = second compound 10 µM, first compound 0.316 µM
[33] = second compound 10 µM, first compound 1 µM
[34] = second compound 10 µM, first compound 3.16 µM
[35] = second compound 10 µM, first compound 10 µM
[36] = second compound 0.1 µM, first compound 0.01 µM
[37] = second compound 0.316 µM, first compound 0.01 µM
[38] = second compound 1 µM, first compound 0.01 µM
[39] = second compound 3.16 µM, first compound 0.01 µM
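Also: spheroids exposed to compounds for 7 days.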
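For viability, T/C in this document: 100% = DMSO vehicle control viability.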

CC1OCC2(CCN(c3cnc(Sc4ccnc(N)c4Cl)c(N)n3)CC2)C1N (stereo unspecified) + CNCc1ccccc1-c1csc(C(C)Nc2nc(C)nc3cc(OC)c(OC)cc23)c1
6.9 µM: IC50 [2]
active: viability, T/C [29] 0.35% | viability, T/C [30] 0.28% | viability, T/C [31] 0.27% | viability, T/C [32] 0.35% | viability, T/C [33] 0.24% | viability, T/C [34] 0.22% | viability, T/C [35] 0.25%
1.14 µM: IC50 [4]
inactive: viability, T/C [6] 109% | viability, T/C [7] 107% | viability, T/C [8] 101% | viability, T/C [9] 94.3% | viability, T/C [10] 101% | viability, T/C [11] 34.4% | viability, T/C [12] 84.8% | viability, T/C [13] 107% | viability, T/C [14] 107% | viability, T/C [15] 88% | viability, T/C [16] 105% | viability, T/C [17] 26.8% | viability, T/C [18] 113% | viability, T/C [19] 99.9% | viability, T/C [20] 94.4% | viability, T/C [21] 96.4% | viability, T/C [22] 109% | viability, T/C [23] 22.1% | viability, T/C [24] 96.4% | viability, T/C [25] 36.9% | viability, T/C [26] 92.7% | viability, T/C [27] 30% | viability, T/C [28] 49.9%
< 0.0316 µM: IC50 [5]
7.62 µM: IC50 [1]
6.71 µM: IC50 [3]

O=C(c1cc(Cc2n[nH]c(=O)c3ccccc23)ccc1F)N1CCN(C(=O)C2CC2)CC1 + COc1cc2nc(C)nc(NC(C)c3cc(N)cc(C(F)(F)F)c3)c2cc1OC1CCOC1
> 10 µM: IC50 [1] | IC50 [2] | IC50 [3] | IC50 [4] | IC50 [5]
inactive: viability, T/C [6] 84.2% | viability, T/C [7] 91.5% | viability, T/C [8] 92.3% | viability, T/C [9] 77.2% | viability, T/C [10] 69.3% | viability, T/C [11] 75% | viability, T/C [12] 80.3% | viability, T/C [13] 79.2% | viability, T/C [14] 95.5% | viability, T/C [15] 80.5% | viability, T/C [16] 98.9% | viability, T/C [17] 95.9% | viability, T/C [18] 79.4% | viability, T/C [19] 81.5% | viability, T/C [20] 69.1% | viability, T/C [21] 87% | viability, T/C [22] 68.1% | viability, T/C [23] 89.6% | viability, T/C [24] 104% | viability, T/C [25] 115% | viability, T/C [26] 117% | viability, T/C [27] 113% | viability, T/C [28] 96.8% | viability, T/C [29] 88.8% | viability, T/C [30] 115% | viability, T/C [31] 121% | viability, T/C [32] 122% | viability, T/C [33] 117% | viability, T/C [34] 72% | viability, T/C [35] 89.5%

CC(=O)Nc1cccc(-n2c(=O)n(C3CC3)c(=O)c3c(Nc4ccc(I)cc4F)n(C)c(=O)c(C)c32)c1
inactive: viability, T/C (compound 0.0001 µM) 96.8% [middle of 5 runs] | viability, T/C (compound 0.000316 µM) 94.2% [middle of 5 runs] | viability, T/C (compound 0.01 µM) 104% [middle of 5 runs]
> 0.0316 µM and 0.028 µM: IC50 (curve of compound)

CN(C)C/C=C/C(=O)Nc1cc2c(Nc3ccc(F)c(Cl)c3)ncnc2cc1O[C@H]1CCOC1
> 0.1 µM: IC50 (curve of compound)
inactive: viability, T/C (compound 0.1 µM) 105% [middle of 5 runs]

CC1(C)CCC(CN2CCN(c3ccc(C(=O)NS(=O)(=O)c4ccc(NCC5CCOCC5)c([N+](=O)[O-])c4)c(Oc4cnc5[nH]ccc5c4)c3)CC2)=C(c2ccc(Cl)cc2)C1
7.19% [middle of 5 runs]: viability, T/C (compound 10 µM)
inactive: viability, T/C (compound 0.1 µM) 90.1% [middle of 5 runs] | viability, T/C (compound 0.316 µM) 102% [middle of 5 runs] | viability, T/C (compound 3.16 µM) 29.4% [middle of 5 runs]
2.03 µM [middle of 5 runs]: IC50 (curve of compound)

CN(C)C/C=C/C(=O)Nc1cc2c(Nc3ccc(F)c(Cl)c3)ncnc2cc1O[C@H]1CCOC1 + C=CC(=O)N1CCN(c2nc(OCC3CCCN3C)nc3c2CCN(c2cccc4cccc(C)c24)C3)CC1CC#N
> 0.1 µM: IC50 (curve of first compound, second compound 0.0316 µM) | IC50 [1] | IC50 [2] | IC50 [3] | IC50 [4]
inactive: viability, T/C (second compound 0.0316 µM, first compound 0.000316 µM) 92% | viability, T/C (second compound 0.0316 µM, first compound 0.001 µM) 105% | viability, T/C (second compound 0.0316 µM, first compound 0.00316 µM) 86% | viability, T/C (second compound 0.0316 µM, first compound 0.01 µM) 83.4% | viability, T/C (second compound 0.0316 µM, first compound 0.0316 µM) 94.5% | viability, T/C (second compound 0.0316 µM, first compound 0.1 µM) 99.7% | viability, T/C (second compound 0.1 µM, first compound 0.000316 µM) 114% | viability, T/C (second compound 0.1 µM, first compound 0.001 µM) 107% | viability, T/C (second compound 0.1 µM, first compound 0.00316 µM) 100% | viability, T/C [36] 94.3% | viability, T/C [6] 86.8% | viability, T/C [7] 88% | viability, T/C (second compound 0.316 µM, first compound 0.000316 µM) 100% | viability, T/C (second compound 0.316 µM, first compound 0.001 µM) 107% | viability, T/C (second compound 0.316 µM, first compound 0.00316 µM) 74.8% | viability, T/C [37] 83.8% | viability, T/C [12] 77% | viability, T/C [13] 81.4% | viability, T/C (second compound 1 µM, first compound 0.000316 µM) 94.7% | viability, T/C (second compound 1 µM, first compound 0.001 µM) 84.9% | viability, T/C (second compound 1 µM, first compound 0.00316 µM) 89.3% | viability, T/C [38] 98.7% | viability, T/C [18] 107% | viability, T/C [19] 77.5% | viability, T/C (second compound 3.16 µM, first compound 0.000316 µM) 111% | viability, T/C (second compound 3.16 µM, first compound 0.001 µM) 83.6% | viability, T/C (second compound 3.16 µM, first compound 0.00316 µM) 87.5% | viability, T/C [39] 100% | viability, T/C [24] 67.7% | viability, T/C [25] 114%

Cn1nccc1Nc1nccc(-c2cc3c(s2)C(C)(C)N(CCN2CCOCC2)C3=O)n1 + CNCc1ccccc1-c1csc(C(C)Nc2nc(C)nc3cc(OC)c(OC)cc23)c1
5.04 µM: IC50 [3]
< 0.0316 µM: IC50 [5]
active: viability, T/C [26] 12.4% | viability, T/C [27] 0.56% | viability, T/C [28] 0.23% | viability, T/C [29] 0.47% | viability, T/C [30] 0.39% | viability, T/C [31] 0.21% | viability, T/C [32] 0.16% | viability, T/C [33] 0.16% | viability, T/C [34] 2.28% | viability, T/C [35] 0.24%
> 10 µM: IC50 [1] | IC50 [2]
inactive: viability, T/C [6] 108% | viability, T/C [7] 96.9% | viability, T/C [8] 123% | viability, T/C [9] 125% | viability, T/C [10] 96.1% | viability, T/C [11] 82.3% | viability, T/C [12] 94.8% | viability, T/C [13] 103% | viability, T/C [14] 137% | viability, T/C [15] 75.6% | viability, T/C [16] 82.2% | viability, T/C [17] 75.8% | viability, T/C [18] 118% | viability, T/C [19] 137% | viability, T/C [20] 134% | viability, T/C [21] 98.1% | viability, T/C [22] 66.8% | viability, T/C [23] 29% | viability, T/C [24] 78% | viability, T/C [25] 13.4%
0.0531 µM: IC50 [4]

CC1COCCN1c1cc(-c2ccnn2C)c2ccnc(-c3ccn[nH]3)c2n1 (stereo unspecified) + CC1OCC2(CCN(c3cnc(Sc4ccnc(N)c4Cl)c(N)n3)CC2)C1N
inactive: viability, T/C [36] 135% | viability, T/C [6] 120% | viability, T/C [7] 78.5% | viability, T/C [8] 75.3% | viability, T/C [9] 60% | viability, T/C [10] 46.6% | viability, T/C [37] 125% | viability, T/C [12] 139% | viability, T/C [13] 57.9% | viability, T/C [14] 66.4% | viability, T/C [15] 60.2% | viability, T/C [16] 59% | viability, T/C [38] 128% | viability, T/C [18] 135% | viability, T/C [19] 57.4% | viability, T/C [20] 55.8% | viability, T/C [21] 51.3% | viability, T/C [22] 48.5% | viability, T/C [39] 134% | viability, T/C [24] 118% | viability, T/C [25] 32.4% | viability, T/C [26] 29% | viability, T/C [27] 32.9% | viability, T/C [28] 36.3% | viability, T/C (second compound 10 µM, first compound 0.01 µM) 68.1% | viability, T/C [30] 29.6% | viability, T/C [31] 12.9% | viability, T/C [32] 11.3% | viability, T/C [33] 12.6% | viability, T/C [34] 18.3%
0.0172 µM: IC50 [5]
0.0793 µM: IC50 [4]
2.86 µM: IC50 [1]
3.16 µM: IC50 [3]
> 3.16 µM: IC50 [2]
